The target in the test is T1, human KV 1.5 (IKur) (Homo sapiens, UniProt P22460).
T1 construct: expressed in transfected cells
T1 sequence (P22460 whole entry): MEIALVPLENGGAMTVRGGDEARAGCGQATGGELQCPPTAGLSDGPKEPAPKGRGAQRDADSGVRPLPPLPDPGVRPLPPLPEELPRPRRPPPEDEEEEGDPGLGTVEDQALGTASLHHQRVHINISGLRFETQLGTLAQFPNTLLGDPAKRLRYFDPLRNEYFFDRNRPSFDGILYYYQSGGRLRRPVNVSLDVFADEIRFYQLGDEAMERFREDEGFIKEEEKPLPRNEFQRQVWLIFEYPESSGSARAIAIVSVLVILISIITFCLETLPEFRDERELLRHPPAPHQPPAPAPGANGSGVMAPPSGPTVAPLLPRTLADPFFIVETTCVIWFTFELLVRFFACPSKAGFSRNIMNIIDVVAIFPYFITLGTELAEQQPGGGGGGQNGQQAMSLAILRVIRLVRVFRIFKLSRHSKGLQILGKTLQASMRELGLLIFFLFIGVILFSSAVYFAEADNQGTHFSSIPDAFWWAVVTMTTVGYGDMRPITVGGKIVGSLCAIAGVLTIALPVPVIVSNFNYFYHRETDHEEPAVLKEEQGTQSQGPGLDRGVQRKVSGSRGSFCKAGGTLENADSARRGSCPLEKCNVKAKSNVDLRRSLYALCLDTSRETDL
Nature of the test: block of IKur current in patch clamped L-929 cells expressing human Kv1.5. The test is classed as cell-based. Particulars: L929, 0.3 μM; patch clamped mammalian L-929 cells stably expressing human Kv1.5; read-out: KV1_5% Inh L929 @0.3 μM. From the text: Assays to determine the degree of activity of a compound as an IKur inhibitor are well known in the art and are described in references such as J. Gen. Physiol., 101(4):513-543 (April 1993), and Br. J. Pharmacol., 115(2):267-274 (May 1995).
Synders, D. J. et al., “A rapidly activating and slowly inactivating potassium channel cloned from human heart: functional analysis after stable mammalian cell culture expression”, J. Gen. Physiol., 101:513-543 (1993). • 2. Zhou, Z. et al., “Block of HERG potassium channels by the antihistamine astemizole and its metabolites desmethylastemizole and norastemizole”, J. Cardiovasc. Electrophysiol., 10(6):836-843 (1999).
As for `CC(=O)NS(=O)(=O)c1cncc(-c2nc(NCc3ccccc3)c3c(-c4ccccc4)ccn3n2)c1` [Example 91, N-(5-(4-(benzylamino)-5-phenylpyrrolo [1,2-f][1,2,4]triazin-2-yl)pyridin-3-ylsulfonyl)acetamide], the inhibition at 0.3 µM was 61.7%.
As for `N#Cc1cccc(-c2nc(NCc3ccccn3)c3c(-c4ccccc4)ccn3n2)c1` [Example 66, 3-(5-phenyl-4-(pyridin-2-ylmethylamino)pyrrolo[1,2-f][1,2,4]triazin-2-yl)benzonitrile], the inhibition at 0.3 µM is 89.2%.
Under `NC(=O)C(=O)Nc1cncc(-c2nc(NCc3ccccn3)c3c(-c4ccccc4)ccn3n2)c1` [Example 31, N1-(5-(5-Phenyl-4-(pyridin-2-ylmethylamino)pyrrolo[1,2-f][1,2,4]triazin-2-yl)pyridin-3-yl)oxalamide] stands 98.6%.
On to `COc1ccc(-c2nc(NCc3ccccn3)c3c(-c4ccccc4)ccn3n2)cn1` [Example 111, 2-(6-methoxypyridin-3-yl)-5-phenyl-N-(pyridin-2-ylmethyl)pyrrolo[1,2-f] [1,2,4]triazin-4-amine], for which the inhibition at 0.3 µM worked out at 97%.
As to `COc1ncc(-c2nc(NCc3nc(C)cs3)c3c(-c4ccccc4)ccn3n2)cc1S(N)(=O)=O` [Example 175, 2-methoxy-5-(4-(((4-methylthiazol-2-yl)methyl)amino)-5-phenylpyrrolo [2,1-f][1,2,4]triazin-2-yl)pyridine-3-sulfonamide], the inhibition at 0.3 µM stood at 97.1%.
With `N#Cc1ccccc1-c1ccn2nc(-c3cncc(S(N)(=O)=O)c3)nc(NCc3ccccn3)c12` [Example 184, 5-(5-(2-cyanophenyl)-4-((pyridin-2-ylmethyl)amino)pyrrolo [2,1-f][1,2,4]triazin-2-yl)pyridine-3-sulfonamide], the inhibition at 0.3 µM turned out to be 80.9%.
As to `CC(C)(C)OC(=O)NC1(c2nc(NCc3ccccn3)c3c(-c4ccccc4)ccn3n2)CC1` [Example 34, tert-Butyl 1-(5-phenyl-4-(pyridin-2-ylmethylamino)pyrrolo[1,2-f][1,2,4]triazin-2-yl)cyclopropylcarbamate], the inhibition at 0.3 µM was 97.3%.
Turning to `COC(=O)C(CS(N)(=O)=O)NC(=O)c1cncc(-c2nc(NCc3ccccc3)c3c(-c4ccccc4)ccn3n2)c1` (stereo not shown) [Example 45, Methyl 2-(5-(4-(benzylamino)-5-phenylpyrrolo[2,1-f][1,2,4]triazin-2-yl)nicotinamido)-3-sulfamoylpropanoate], the inhibition at 0.3 µM turned out to be 90.1%.
Turning to `CC(=O)NC1(c2nc(NCc3ccccn3)c3c(-c4ccccc4)ccn3n2)CC1` [Example 36, N-(1-(5-Phenyl-4-(pyridin-2-ylmethylamino)pyrrolo[1,2-f][1,2,4]triazin-2-yl)cyclopropyl)acetamide], the inhibition at 0.3 µM amounted to 46%.
Turning to `NS(=O)(=O)c1cncc(-c2nc(NCCOc3cnccn3)c3c(-c4ccccc4)ccn3n2)c1` [Example 23, 5-(5-Phenyl-4-((2-(pyrazin-2-yloxy)ethyl)amino)pyrrolo[2,1-f][1,2,4]triazin-2-yl)pyridine-3-sulfonamide], the inhibition at 0.3 µM is 91.6%.
Under `CC(=O)Nc1ccc(-c2nc(NCc3ccccn3)c3c(-c4ccccc4)ccn3n2)cc1` [Example 26, N-(4-(5-Phenyl-4-(pyridin-2-ylmethylamino)pyrrolo[1,2-f][1,2,4]triazin-2-yl)phenyl)acetamide] stands 94.5%; under `COC(=O)C1CCCN1C(=O)c1cncc(-c2nc(NCc3ccccc3)c3c(-c4ccccc4)ccn3n2)c1` (stereo not shown) [Example 22, Methyl 1-(5-(4-(benzylamino)-5-phenylpyrrolo[1,2-f][1,2,4]triazin-2-yl)nicotinoyl)pyrrolidine-2-carboxylate], 95.1%; under `NC(=O)c1ccc(-c2nc(NCc3ccccc3)c3c(-c4ccccc4)ccn3n2)cn1` [Example 81, 5-(4-(benzylamino)-5-phenylpyrrolo [1,2-f][1,2,4]triazin-2-yl) picolinamide], 97%.

The values above are taken from US9050345B2, “Pyrrolotriazines as potassium ion channel inhibitors” (BRISTOL-MYERS SQUIBB COMPANY, priority 2013, dated 2015).
